In patent US8008354B2, “Death receptor sensitizing compounds and methods of use therefor” (Burnham Institute for Medical Research, priority 2006, dated 2011):

Tests used:
[1] = test system: solid tumor cell lines; experiment: MTT cell viability of a spectrum of tumor cell lines with or without CH-11; assay type: cell-based; conditions: 10 tumor cell lines, CH-11 100 ng/mL, MTT 24 hours
Description: FIG. 3. Compounds 6094911, 5809354, and 5569100 sensitize a spectrum of tumor cells to CH-11 anti-FAS antibody. Solid tumor cell lines were seeded overnight in 96 well plates at a density of 1×10^4 cells per well. The next day, cells were treated with increasing concentrations of compound 6094911, 5809354, or 5569100 with (square) or without (circle) CH-11 antibody (100 ng/mL). Cell viability was measured 24 hours later by MTT assay. Cell viability is expressed as a mean percentage of untreated cells+SD (n=3).
Cell death assays. Cell viability was measured by MTT and MTS assays, essentially as described in Schimmer et al. (2004). Absorbance readings were plotted against a standard curve to derive the corresponding cell number, and cell viability was expressed as a percentage relative to untreated cells. Apoptosis was measured by flow cytometric analysis of Annexin V surface expression after staining cells with FITC-anti-Annexin V and propidium iodide (PI) (Biovision, Mountain View, Calif.), as described in Pederson et al. (2002).
To assess the spectrum of activity of the small molecule FAS sensitizers, an additional 9 malignant cell lines derived from breast, ovarian, and prostate carcinomas were treated with increasing concentrations of the sensitizers in the presence or absence of CH-11. […]

[2] = test system: PPC-1 cells; experiment: Anoikis of PPC-1 cells in suspension versus adherent conditions (annexin V/PI, DAPI, colony formation); assay type: cell-based, human
Description: FIG. 12. Depletion of endogenous FLIP levels by siRNA sensitizes malignant cells to anoikis. (A) PPC-1 cells were seeded in adherent conditions overnight and then transfected with 25 nM anti-FLIP siRNA (siFLIP) or control luciferase siRNA (siCtrl). Thirty hours after transfection, cells were harvested, total protein isolated and analyzed by SDS-PAGE immunoblotting using anti-FLIP and anti-actin antibodies. (B) PPC-1 cells were transfected with increasing concentrations of siFLIP or siCtrl. After transfection, cells were treated with CH-11 Fas activating antibody (100 ng/ml). Thirty hours after incubation, cells were harvested and apoptosis measured by flow cytometry to detect cell surface annexin V expression and PI uptake. Data represents the mean±SEM percent of viable cells. (C) PPC-1 cells were transfected with increasing concentrations of siFLIP or siCtrl. After transfection, cells were subcultured under suspension conditions for 30 hours and then harvested. Apoptosis was measured by flow cytometry to detect cell surface annexin V expression and PI uptake. Data represents the mean±SEM of percent of viable cells. (D) Equal volumes of PPC-1 cells from panel C were replated under adherent conditions to permit clonogenic growth. One week after replating, cells were stained with methylene blue and the number of colonies counted. Data represents the mean±SEM percent of colonies compared to untreated controls.
FIG. 13. Small molecule down-regulation of FLIP sensitizes prostate cancer cells to anoikis. (A) PPC-1 cells were seeded overnight in adherent conditions and then treated with increasing concentrations of 5809354 for 16 hours. After incubation, cells were harvested. Total cellular RNA was extracted and mRNA levels of the long isoform of FLIP (FLIPL), the short isoform of FLIP (FLIPS), or rRNA levels of 18S were detected by real-time RT-PCR. Data were normalized using the ΔΔCT method and expressed as the mean±SEM percent of […] expression relative to untreated controls. (B) PPC-1 cells were cultured and treated as in panel A. Total cellular protein was isolated and analyzed by SDS-PAGE immunoblotting using anti-FLIP and anti-Actin antibodies. (C) PPC-1 cells were seeded overnight in adherent conditions and then exposed to increasing concentrations of 5809354 in the presence or absence of Fas-activating antibody (CH-11, 100 ng/mL). Thirty hours after incubation, cell viability was determined using the MTS assay. Data represents the mean±SEM of percent of viable cells. (D) PPC-1 cells were seeded overnight in adherent or suspension conditions and then treated with increasing concentrations of 5809354 for 30 hours. After incubation, apoptosis was measured by flow cytometry to detect cell surface annexin V expression and PI. Data represents the mean±SEM of percent of viable cells. (E) Cells were harvested, fixed, stained with DAPI, and nuclear morphology analyzed by fluorescence microscopy. Arrowheads refer to fragmented nuclei indicative of apoptosis. […] Thirty hours after incubation, cells were harvested and equal volumes plated in a colony formation assay. One week later, cells were stained with methylene blue and the number of colonies counted. Data represents the mean ±SEM percent of colonies relative to untreated controls.
FIG. 15. 5809354 sensitizes cells to anoikis through a caspase 8 dependent mechanism. (A) PPC-1 cells (5×10^4) were cultured under suspension conditions overnight and then treated with 5809354 in the presence or absence of the pan-caspase inhibitor z-VAD-fink (100 μM). Thirty hours after incubation, anoikis was determined by flow cytometry to detect cell surface annexin V expression and PI uptake. Data represents the mean±SEM percent of viable cells or colonies compared to untreated controls. (B) PPC-1 cells (5×10^4) were cultured in suspension conditions overnight and then treated with 5809354 (60 μM). […]

Compound | tumor cell lines sensitized to CH-11 [1] | sensitization to anoikis ([2]; suspension conditions, 30 hours) | effect of z-VAD-fmk on anoikis ([2]; suspension conditions, z-VAD-fmk 100 μM) | apoptosis under adherent conditions ([2]; up to five days after treatment) | apoptosis in suspension versus adherent cells ([2]; thirty hours)
4-(4-chloro-2-methylphenoxy)-N-hydroxybutanamide [compound 5809354] | sensitized the same tumor lines with the exception of HT29 | sensitized cells to anoikis | z-VAD-fmk inhibited the ability of 5809354 to promote anoikis | did not induce apoptosis | –
CC(=O)CC(=O)Nc1ccc(Cl)c(C(F)(F)F)c1 [compound 6094911, N-[4-chloro-3-(trifluoromethyl)phenyl]-3-oxobutanamide] | 4 of 10 | – | – | – | –
CN[C@@H]1C[C@H]2O[C@@](C)([C@@H]1OC)n1c3ccccc3c3c4c(c5c6ccccc6n2c5c31)C(=O)NC4 [staurosporine, reference compound] | – | – | – | – | did not discriminate between suspension and adherent cells
